This is an account of results in patent US6391885B1, “Method of treating a patient having precancerous lesions with phenyl cycloamino pyrimidinone derivatives” (Cell Pathways, Inc., priority 1995, dated 2002).

Turning to `CCCc1ccnc2c(=O)[nH]c(-c3cc(S(=O)(=O)N4CCNCC4)ccc3OCC)nc12` [Example 3, 2-[2-Ethoxy-5-(1-piperazinylsulphonyl)phenyl]-8-n-propylpyrido[3,2-d]pyrimidin-4(3H)-one], the melting point (commonly the temperature of the solid-liquid transition) is 178 to 180 °C. As for `CCCc1ccnc2c(=O)[nH]c(-c3cc(S(=O)(=O)N4CCC(C(=O)OCC)CC4)ccc3OCC)nc12` [Example 4, 2-[2-Ethoxy-5-(4-ethoxycarbonylpiperidinosulphonyl)phenyl]-8-n-propylpyrido[3,2-d]pyrimidin-4(3H)-one], the figure is 204 to 205 °C; as for `CCCc1ccnc2c(=O)[nH]c(-c3cc(S(=O)(=O)NC)ccc3OCC)nc12` [Example 6, 2-[2-Ethoxy-5-(methylsulphamoyl)phenyl]-8-n-propylpyrido[3,2-d]pyrimidin-4(3H)-one], 216 to 219 °C. Next, `CCCOc1ccccc1-c1nc2nnc(SC)nc2c(=O)[nH]1` [Example 75, 5,6-Dihydro-3-methylthio-5-oxo-7-(2-propoxyphenyl)pyrimido[5,4-e][1,2,4]triazine]: 195 to 197 °C. Next, `CCCOc1ccccc1-c1nc2nc(SC)nnc2c(=O)[nH]1` [Example 79, 3-Methylthio-8-oxo-6-(2-propoxyphenyl)-7,8-dihydropyrimido[4,5-e][1,2,4]triazine]: 247 to 249 °C.
